Values quoted from earlier work, collected in US7423028B2, “Injectable pharmaceutical compositions comprising sodium diclofenac and β-cyclodextrin” (Ibsa Institut Biochemique S.A., priority 2004, dated 2008).

O=C([O-])Cc1ccccc1Nc1c(Cl)cccc1Cl.[Na+] [sodium diclofenac, 2-[(2,6-dichlorophenyl)amino]benzeneacetic acid monosodium salt]
solubility in water: sparingly soluble in water
